Laboratory results: US10383845B2 (priority 2017, dated 2019)
“Also recorded” adds a separate entry of the source. Read-outs that look alike come from different tables or passages of the source.

What was measured:
bacteria = conditions: cited from earlier work
[1] = target: Vitamin K Oxide Reductase (Homo sapiens, UniProt Q9BQB6); conditions: cited from earlier work
human VKOR [2] = target: T1, human VKOR (Homo sapiens, UniProt Q9BQB6); conditions: cited from earlier work
T1 construct: from tissue

[3] = Warfarin in plasma and saliva (oral fluid) of 14 patients undergoing Warfarin therapy (Lomonaco et al. 2014); type: in vivo, human; conditions: inferred from the findings of Lomonaco
[4] = tested on: patients suffering from chronic periodontitis; experiment: Observation of patients suffering from chronic periodontitis under continued systemic medication with Warfarin; type: in vivo, human
Source text: Such observations had not been reported in the medical literature or anywhere else.

human VKOR [5] = target: T1, human VKOR; experiment: Inhibition of the human VKOR by unbound plasma Warfarin; type: in vivo; conditions: converted from ng/ml
[6] = tested on: bacterial VKOR of several strains of mycobacteria; conditions: cited from earlier work

T1 sequence (Q9BQB6 whole entry): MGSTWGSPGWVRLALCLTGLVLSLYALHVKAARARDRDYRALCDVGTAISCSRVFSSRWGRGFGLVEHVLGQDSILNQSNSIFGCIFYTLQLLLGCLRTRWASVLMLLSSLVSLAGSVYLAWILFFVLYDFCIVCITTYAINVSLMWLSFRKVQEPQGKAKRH
Vitamin K Oxide Reductase, sequence (Q9BQB6 whole entry): as above

| SMILES | antibacterial properties (bacteria) | sensitivity of Vitamin K Oxide Reductase to inhibition [1] | unbound plasma concentration sufficient for effective inhibition of the human VKOR (human VKOR [2]) | concentration in oral fluid sufficient to be effective [3] | buildup of dental plaque and tartar [4] | chronic periodontitis / periodontal disease [4] | frequency and severity of gingival inflammation occurrences [4] | unbound plasma concentration sufficient for effective inhibition of the human VKOR (human VKOR [5]) | concentration at which bacterial VKOR was inhibited [6] |
| --- | --- | --- | --- | --- | --- | --- | --- | --- | --- |
| O=c1oc2ccccc2c(O)c1Cc1c(O)c2ccccc2oc1=O [Dicumarol] | marked antibacterial properties | highly sensitive to inhibition |  |  |  |  |  |  |  |
| CC(=O)CC(c1ccccc1)c1c(O)c2ccccc2oc1=O (stereo not shown) [Warfarin] |  | highly sensitive to inhibition | 9 ± 4 ng/mL | less than 1×10^−7 M | significant decrease; also recorded: reduced | marked improvement; also recorded: significant reduction | reduction; also recorded: reduced | ~30 nM | 1.6 to 4.5 mM |
